Test results published in patent publication EP3838286B1, “ANTIMICROBIAL PEPTIDE FROM POLISTES GALLICUS VENOM AND ITS ANALOGS” (Latoxan, priority 2019, dated 2021).
≈ marks a conversion by molar mass, not a printed value.

Key:
P. aeruginosa [1] = assay: Antimicrobial tests (MIC/MBC, two-fold serial dilution); type: cell-based, Pseudomonas aeruginosa (ATCC 9037); details: Pseudomonas aeruginosa; Table 3; n=4
E. coli = assay: Antimicrobial tests (MIC, two-fold serial dilution); type: cell-based, E. coli (ATCC 8739); details: Escherichia coli; Table 3; n=4
S. aureus = assay: as above; type: cell-based, Staphylococcus aureus (ATCC 6538P); details: Staphylococcus aureus; Table 3; n=4
B. subtilis = assay: as above; type: cell-based, Bacillus subtilis (ATCC 6633); details: Bacillus subtilis; Table 3; n=4
PC-3 = assay: Antitumor / antiproliferative activity (resazurin); type: cell-based; details: Homo sapiens, prostate cancer cells, 5,000 cells/well, 48 h, read-out: IC50 antiproliferative effect PC-3
Description: (§1) Human cancer cell lines (Mia PaCa-2 (CRL-1420), PC-3 (CRL-1435), MDA-MB-231 (HTB-26)) and normal lung fibrobasts (BEAS-2B (ATCC CRL-9609) and IMR-90 (ATCC CCL-186)) were obtained from American Type Culture Collection (ATCC). HUVEC cells were obtained from Sigma Aldrich and were grown in defined all-in-one ready to use endothelial cell growth medium (Sigma Aldrich). Other cells were cultured in Dulbecco's modified Eagle's medium (DMEM, Gibco Life Technologies) supplemented with 10% heat-inactivated fetal calf serum (FCS, Lonza) at 37 °C in an incubator containing 5% CO2. Cells were sub-cultured in new media every 3-4 days. Antiproliferative / antitumor effects of the peptides were measured as previously described (Borie et al., Eur J Med Chem. 2018;148:306-313). Briefly, cells were detached from growing flask using trypsin, cells were counted and seeded in 96 well-plates in the growth media at an initial cell density of 5000 cells/well. Cells were left for 4 h to attach to the wells. Cells were then treated with increasing concentrations of peptides diluted in culture media. After 48 h incubation at 37 °C in a 5% CO2 incubator, wells were emptied and cell number was evaluated using Resazurin based in vitro toxicity assay kit (from Sigma-Aldrich) following manufacturer's instructions. Briefly, Resazurin stock solution was diluted 1:10 in sterile PBS containing calcium and magnesium (PBS, pH 7.4) and empty wells were filled with 100 µL of the diluted solution. After 4 h incubation at 37 °C, fluorescence intensity was measured using microplate reader (Synergy Mx, Biotek) with an excitation wavelength of 530 nm and an emission wavelength of 590 nm. The fluorescence values were normalized by the controls (buffer treated cells) and expressed as per-cent viability. […]

MDA-MB-231 = assay: Antitumor / antiproliferative activity (resazurin); type: cell-based; details: Homo sapiens, breast cancer cells, 5,000 cells/well, 48 h, read-out: IC50 antiproliferative effect MDA-MB-231
Description: as §1

MiaPaCa-2 = assay: Antitumor / antiproliferative activity (resazurin); type: cell-based; details: Homo sapiens, MIA PaCa-2; pancreas cancer cells; 5,000 cells/well; 48 h; read-out: IC50 antiproliferative effect MiaPaCa-2
Description: as §1

P. aeruginosa [2] = assay: Selection for resistant bacteria (serial passaging); type: cell-based; details: daily exposure at sub-MIC levels, 30 days; antibiotics: after 10 days
Description: To evaluate if populations of AMP-resistant bacteria could be selected, cultures were continuously exposed to LTX-gallicune-1 (I1N1) and LTX-gallicune-2(R1W8) peptides for a duration of 30 days, as previously described (Oyama et al., 2017 Biofilms Microbiomes, Dec 1;3:33). Briefly, broth microdilution susceptibility testing was performed using a standard doubling-dilution series of gallicune peptides concentrations on day 1. Following incubation of the cultures for 24 h, and determination of the MIC, the well that contained the highest concentration of AMPs permitting growth was diluted 1: 1000 in MH and used to provide the inoculum for the next MIC assay; this process was repeated daily for 30 days.

In the case of `CC1(C)S[C@@H]2[C@H](NC(=O)[C@H](N)c3ccc(O)cc3)C(=O)N2[C@H]1C(=O)O` [Amoxicilline], the MIC (P. aeruginosa [1]) is reported as over 100 µM, the MIC (E. coli) is reported as 9 µM (≈ 3.29 µg/mL) and the MIC (S. aureus) is reported as 0.9 µM (≈ 0.329 µg/mL). It also gave an MIC (B. subtilis) of 0.45 to 0.9 µM (≈ 0.164 to 0.329 µg/mL).

`COc1cccc2c1C(=O)c1c(O)c3c(c(O)c1C2=O)C[C@@](O)(C(=O)CO)C[C@@H]3O[C@H]1C[C@H](N)[C@H](O)[C@H](C)O1` [Doxo, Doxorubicine] showed an IC50 (PC-3) of 315 nM, an IC50 (MDA-MB-231) of 79.8 nM and an IC50 (MiaPaCa-2) of 190 nM.

With `CO/N=C1\CN(c2nc3c(cc2F)c(=O)c(C(=O)O)cn3C2CC2)CC1CN` (centres unmarked) [Gemifloxacin] the “change of MIC against P. aeruginosa on serial passaging (resistance acquisition)” value (P. aeruginosa [2]) was “increasing”.
